We go through 20 compounds from patent publication US12110294B2, “CD73 compounds” (Gilead Sciences, Inc., priority 2020, dated 2024).

The target of this experiment is T1, CD73 activity in MDA-MB-231-GFP cells (Homo sapiens, UniProt P21589).
T1 construct: endogenous in cells; host or cells: MDA-MB-231-GFP cells
T1 sequence (P21589 27-549): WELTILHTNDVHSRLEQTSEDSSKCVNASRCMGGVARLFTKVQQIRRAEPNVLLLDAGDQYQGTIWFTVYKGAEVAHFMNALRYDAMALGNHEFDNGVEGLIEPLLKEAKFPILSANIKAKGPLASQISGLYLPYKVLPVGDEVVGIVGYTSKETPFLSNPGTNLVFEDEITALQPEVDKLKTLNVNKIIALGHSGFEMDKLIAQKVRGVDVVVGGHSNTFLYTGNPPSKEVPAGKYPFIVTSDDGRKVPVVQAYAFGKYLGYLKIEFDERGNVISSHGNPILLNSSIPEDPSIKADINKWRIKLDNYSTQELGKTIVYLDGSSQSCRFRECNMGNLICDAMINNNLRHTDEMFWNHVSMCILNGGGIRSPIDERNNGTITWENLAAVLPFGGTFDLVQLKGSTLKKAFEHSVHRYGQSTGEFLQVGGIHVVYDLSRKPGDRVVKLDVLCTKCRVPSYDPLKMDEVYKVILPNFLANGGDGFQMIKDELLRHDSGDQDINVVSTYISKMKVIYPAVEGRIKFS
Put plainly: MDA-MB-231 Cell Based CD73 Activity Assay (DMEM). As to conditions: 3000 cells per well, DMEM medium with 10% human plasma, overnight compound treatment, AMP 200 uM. The protocol:
MDA-MB-231 Cell Based CD73 Activity Assay (DMEM) MDA-MB-231-GFP cells were seeded in 384-well plates (Greiner 781946) at a density of 3000 cells per well in 50 μL of DMEM medium with 10% HP (human plasma). Cells were plated into assay plate with compounds pre-spotted, for an overnight compound treatment. 50 uL of 400 uM AMP (final concentration will be 200 uM) was added using Bio-tek dispenser. Plates were incubated for 100 mins. […] The samples were analyzed using Rapid fire.
Compound `O=c1[nH]cc(-c2cc([C@H]3C[C@@H]3c3ccc4c(F)nn(CC(F)(F)F)c4c3)c3nccn3n2)c(=O)[nH]1` (racemic) [Example 117, 5-(8-((2S,2S)-2-(3-fluoro-1-(2,2,2-trifluoroethyl)-1H-indazol-6-yl)cyclopropyl)imidazo[1,2-b]pyridazin-6-yl)pyrimidine-2,4(1H,3H)-dione] displayed an EC50 of 0.14 nM.

Consider `O=c1[nH]cc(-c2cc([C@H]3C[C@@H]3c3ccc4cnn(CC5CC5(F)F)c4c3)c3nccn3n2)c(=O)[nH]1` (mixture of isomers) [Example 118, 5-(8-((2S,2S)-2-(1-((2,2-difluorocyclopropyl)methyl)-1H-indazol-6-yl)cyclopropyl)imidazo[1,2-b]pyridazin-6-yl)pyrimidine-2,4(1H,3H)-dione], for which the 50% effective concentration (EC50) was determined as 0.1 nM.

`O=c1[nH]cc(-c2cc([C@H]3C[C@@H]3c3cc4c(ccn4CC(F)(F)F)cn3)c3nccn3n2)c(=O)[nH]1` (racemic) [Example 127, 5-(8-((2S,2S)-2-(1-(2,2,2-trifluoroethyl)-1H-pyrrolo[3,2-c]pyridin-6-yl)cyclopropyl)imidazo[1,2-b]pyridazin-6-yl)pyrimidine-2,4(1H,3H)-dione] yielded an EC50 of 0.17 nM.

In the case of `O=c1[nH]cc(-c2cc([C@H]3C[C@@H]3c3ccc4c(C5CC5)nn(CC(F)(F)F)c4c3)c3nccn3n2)c(=O)[nH]1` (racemic) [Example 128, 5-(8-((2S,2S)-2-(3-cyclopropyl-1-(2,2,2-trifluoroethyl)-1H-indazol-6-yl)cyclopropyl)imidazo[1,2-b]pyridazin-6-yl)pyrimidine-2,4(1H,3H)-dione], a half-maximal effect (EC50) was put at 0.4 nM.

`O=c1[nH]cc(-c2cc([C@H]3C[C@@H]3c3ccc4cnn(CC5CC5)c4c3)c3nccn3n2)c(=O)[nH]1` (racemic) [Example 130, 5-(8-((2S,2S)-2-(1-(cyclopropylmethyl)-1H-indazol-6-yl)cyclopropyl)imidazo[1,2-b]pyridazin-6-yl)pyrimidine-2,4(1H,3H)-dione]: the 50% effective concentration (EC50) stood at 0.13 nM.

With `O=c1[nH]cc(-c2cc([C@H]3C[C@@H]3c3ccc4ncsc4c3)c3nc(C4CC4)cn3n2)c(=O)[nH]1` (racemic) [Example 143, 5-(8-((1S,2S)-2-(benzo[d]thiazol-6-yl)cyclopropyl)-2-cyclopropylimidazo[1,2-b]pyridazin-6-yl)pyrimidine-2,4(1H,3H)-dione], the EC50 came out at 13.1 nM.

In turn, `N#Cc1ccc([C@H]2C[C@@H]2c2cc(-c3c[nH]c(=O)[nH]c3=O)nn3c(F)cnc23)nc1` (racemic) [Example 151, 6-((1S,2S)-2-(6-(2,4-dioxo-1,2,3,4-tetrahydropyrimidin-5-yl)-3-fluoroimidazo[1,2-b]pyridazin-8-yl)cyclopropyl)nicotinonitrile] displayed an EC50 of 1.94 nM.

`O=c1[nH]cc(-c2cc([C@H]3C[C@@H]3c3ccc4cccnc4c3)c3nccn3n2)c(=O)[nH]1` (racemic) [Example 154, 5-(8-((1S,2S)-2-(quinolin-7-yl)cyclopropyl)imidazo[1,2-b]pyridazin-6-yl)pyrimidine-2,4(1H,3H)-dione] yielded an EC50 of 5.75 nM.

In turn, `N#Cc1ccc([C@H]2C[C@@H]2c2cc(-c3c[nH]c(=O)[nH]c3=O)nn3ccnc23)nc1` (racemic) [Example 155, 6-((1S,2S)-2-(6-(2,4-dioxo-1,2,3,4-tetrahydropyrimidin-5-yl)imidazo[1,2-b]pyridazin-8-yl)cyclopropyl)nicotinonitrile] returned an EC50 of 5.42 nM.

Take `O=c1[nH]cc(-c2cc([C@H]3C[C@@H]3c3ccc4cnccc4c3)c3nccn3n2)c(=O)[nH]1` (racemic) [Example 156, 5-(8-((1S,2S)-2-(isoquinolin-6-yl)cyclopropyl)imidazo[1,2-b]pyridazin-6-yl)pyrimidine-2,4(1H,3H)-dione]: the EC50 is 1.87 nM.

`O=c1[nH]cc(-c2cc([C@H]3C[C@@H]3c3ccc4ncccc4c3)c3nccn3n2)c(=O)[nH]1` (racemic) [Example 157, 5-(8-((2S,2S)-2-(quinolin-6-yl)cyclopropyl)imidazo[1,2-b]pyridazin-6-yl)pyrimidine-2,4(1H,3H)-dione] registered an EC50 of 2.81 nM.

For the compound `O=c1[nH]cc(-c2cc([C@H]3C[C@@H]3c3ccnc(C(F)(F)F)c3)c3nccn3n2)c(=O)[nH]1` (racemic) [Example 160, 5-(8-((2S,2S)-2-(2-(trifluoromethyl)pyridin-4-yl)cyclopropyl)imidazo[1,2-b]pyridazin-6-yl)pyrimidine-2,4(1H,3H)-dione], the response was half-maximal at 27.8 nM (EC50).

In turn, `O=c1[nH]cc(-c2cc([C@H]3C[C@@H]3c3ccncc3F)c3nccn3n2)c(=O)[nH]1` (racemic) [Example 161, 5-(8-((1S,2S)-2-(3-fluoropyridin-4-yl)cyclopropyl)imidazo[1,2-b]pyridazin-6-yl)pyrimidine-2,4(1H,3H)-dione] had a concentration giving a half-maximal response (EC50) of 11 nM.

Regarding `O=c1[nH]cc(-c2cc([C@H]3C[C@@H]3c3cnc4ccccc4c3)c3nccn3n2)c(=O)[nH]1` (racemic) [Example 163, 5-(8-((1S,2S)-2-(quinolin-3-yl)cyclopropyl)imidazo[1,2-b]pyridazin-6-yl)pyrimidine-2,4(1H,3H)-dione], the EC50 stood at 10.6 nM.

With `O=c1[nH]cc(-c2cc([C@H]3C[C@@H]3c3cncc(F)c3)c3nccn3n2)c(=O)[nH]1` (racemic) [Example 164, 5-(8-((1S,2S)-2-(5-fluoropyridin-3-yl)cyclopropyl)imidazo[1,2-b]pyridazin-6-yl)pyrimidine-2,4(1H,3H)-dione], the concentration for a half-maximal effect (EC50) was determined as 14 nM.

`O=c1[nH]cc(-c2cc([C@H]3C[C@@H]3c3ccc(C(F)(F)F)cc3F)c3nccn3n2)c(=O)[nH]1` (racemic) [Example 165, 5-(8-((1S,2S)-2-(2-fluoro-4-(trifluoromethyl)phenyl)cyclopropyl)imidazo[1,2-b]pyridazin-6-yl)pyrimidine-2,4(1H,3H)-dione]: the concentration giving a half-maximal response (EC50) was 38.7 nM.

`O=c1[nH]cc(-c2cc([C@H]3C[C@@H]3c3cccc4ccncc34)c3nccn3n2)c(=O)[nH]1` (racemic) [Example 166, 5-(8-((1S,2S)-2-(isoquinolin-8-yl)cyclopropyl)imidazo[1,2-b]pyridazin-6-yl)pyrimidine-2,4(1H,3H)-dione] gave an EC50 of 378 nM.

`O=c1[nH]cc(-c2cc([C@H]3C[C@@H]3c3ccnc4ccccc34)c3nccn3n2)c(=O)[nH]1` (racemic) [Example 167, 5-(8-((1S,2S)-2-(quinolin-4-yl)cyclopropyl)imidazo[1,2-b]pyridazin-6-yl)pyrimidine-2,4(1H,3H)-dione]: the EC50 worked out at 152 nM.

As for `O=c1[nH]cc(-c2cc([C@H]3C[C@@H]3c3cccc4cnccc34)c3nccn3n2)c(=O)[nH]1` (racemic) [Example 168, 5-(8-((1S,2S)-2-(isoquinolin-5-yl)cyclopropyl)imidazo[1,2-b]pyridazin-6-yl)pyrimidine-2,4(1H,3H)-dione], the EC50 is 306 nM.

`CCOC(=O)c1cn2nc(-c3c[nH]c(=O)[nH]c3=O)cc([C@H]3C[C@@H]3c3ccc(F)cc3)c2n1` (racemic) [Example 172, ethyl 6-(2,4-dioxo-1,2,3,4-tetrahydropyrimidin-5-yl)-8-((1S,2S)-2-(4-fluorophenyl)cyclopropyl)imidazo[1,2-b]pyridazine-2-carboxylate] displayed an EC50 of 65.1 nM.

Usually EC50 stands for the concentration needed to bring the measured effect to its halfway point. A high value points to a need for much substance.
